Experimental data taken from EP0656422A1, “Cat assay” (priority 1993, dated 1995).

Target: Chloramphenicol Acetyl Transferase (CAT) (Escherichia coli, UniProt P62577)
Test: Acetylation by CAT with ¹⁴C acetyl coenzyme A, TLC and autoradiography
Assay type: biochemical
Conditions: analogue 2 mM stock 80 µl, CAT enzyme 3.75 units, ¹⁴C acetyl coenzyme A 0.1 µCi, 37°C for 90 minutes; no band in no enzyme control
Protocol: Biotinylated chloramphenicol analogue (compound 2) was dissolved to a concentration of 2 mmolar in 50% methanol. ¹⁴C acetyl coenzyme A (50 µCi/ml, […]) was obtained commercially.
In a microcentrifuge tube were mixed Tris/HCl (1M, pH 7.8) 7.5 µl, biotinylated chloramphenicol analogue (2 mM) 80 µl, CAT enzyme 3.75 units and ¹⁴C acetyl coenzyme A 2 µl (0.1 µCi). The mix was incubated at 37°C for 90 minutes. A control reaction which contained no enzyme was performed in parallel. 20 µl of each reaction was spotted on to a cellulose TLC plate which was developed in 95/5 chloroform methanol. The TLC plate was exposed to autoradiographic film.
The lane corresponding to the reaction to which enzyme was added contains a spot which migrated under the influence of the solvent. This band is acetylated, biotinylated chloramphenicol analogue. No corresponding band is visible in the no enzyme control.

Chain of Chloramphenicol Acetyl Transferase (CAT) (P62577 whole entry, looked up): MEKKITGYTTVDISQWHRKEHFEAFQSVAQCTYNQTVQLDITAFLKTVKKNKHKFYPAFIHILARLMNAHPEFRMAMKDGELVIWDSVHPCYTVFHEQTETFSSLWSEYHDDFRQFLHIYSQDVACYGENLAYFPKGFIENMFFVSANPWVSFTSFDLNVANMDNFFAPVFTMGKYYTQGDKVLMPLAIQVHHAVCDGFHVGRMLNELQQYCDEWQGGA

Q: Which “substrate of CAT (acetylated product band on TLC)” value does the source give for `CC(=O)N[C@H](CO)[C@H](O)c1ccc(NC(=O)CCCCCNC(=O)CCCC[C@@H]2SC[C@@H]3NC(=O)N[C@@H]32)cc1` [Compound 2, 6-biotinylamino-N[4-(N-acetyl-1-(2-amino-1,3-propandiol))phenyl]hexamide] here?
A: is a substrate of CAT
